Data from patent publication US9873717B2, “TRH binding site in human CNS” (THE PROVOST, FELLOWS, FOUNDATION SCHOLARS, AND THE OTHER …, priority 2012, dated 2018).
Entries after “also recorded” stand apart in the source; their conditions may differ. Read-outs that look alike come from different tables or passages of the source. Non-standard residues stand in square brackets, D forms with d. Residues, ends and D or L forms follow the SMILES beside them. *: point of attachment. AMC = Cc1cc(=O)oc2cc(N*)ccc12; pGlu = O=C1CC[C@@H](C(=O)O)N1

How the values were obtained:
[1] = biological target: [^3H][3-Me-His^2]TRH-labelled native TRH receptors in rat hippocampal membranes; assay: Displacement of [3H][3-Me-His2]TRH, native rat hippocampal membranes; type: binding; settings: native rat tissue; N = 3-6
[2] = biological target: [^3H][3-Me-His^2]TRH-labelled native TRH receptors in rat cortical membranes; assay: Displacement of [3H][3-Me-His2]TRH, native rat cortical membranes; type: binding; settings: native rat tissue; N = 3-6
[3] = biological target: T1, TRHR1 (GH4 pituitary cell line, naturally expresses TRHR1) (Rattus norvegicus, UniProt Q01717); assay: Displacement of [3H][3-Me-His2]TRH, GH4 cell membranes; type: binding; settings: N = 2; read-out: IC50, displacement of [^3H][3-Me-His^2]TRH, GH4 cell membranes
T1 construct: a GH4 pituitary cell line, which naturally expresses TRHR1; endogenous in cells; host or cells: GH4 pituitary cell membranes
T1 sequence (Q01717 1-412): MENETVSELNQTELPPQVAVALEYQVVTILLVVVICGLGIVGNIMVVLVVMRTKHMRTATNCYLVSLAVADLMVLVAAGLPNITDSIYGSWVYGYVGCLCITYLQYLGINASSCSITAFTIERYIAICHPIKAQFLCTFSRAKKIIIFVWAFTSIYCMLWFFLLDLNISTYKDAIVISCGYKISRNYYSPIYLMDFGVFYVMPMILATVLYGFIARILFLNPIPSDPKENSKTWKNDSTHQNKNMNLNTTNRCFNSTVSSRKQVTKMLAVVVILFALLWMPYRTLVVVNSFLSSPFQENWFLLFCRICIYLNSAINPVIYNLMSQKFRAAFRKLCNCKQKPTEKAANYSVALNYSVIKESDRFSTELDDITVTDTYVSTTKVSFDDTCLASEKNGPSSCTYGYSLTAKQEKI

TRHR1 [4] = assay: Displacement of [3H][3-Me-His2]TRH, membranes from CHO cells transfected with TRHR1; type: binding; settings: N = 2; read-out: IC50, displacement of [^3H][3-Me-His^2]TRH, membranes from Chinese Hamster Ovary cells transfected with TRHR1
[5] = biological target: [^3H][3-Me-His^2]TRH-labelled native TRH receptors in rat cortical membranes; settings: cited from earlier work
[6] = biological target: TRH receptors in human amygdala; settings: saturable binding; prior studies; read-out: Kd of radioligand binding in human amygdala; cited from earlier work
[7] = biological target: T2, TRH receptors in rat pituitary tissue (Rattus norvegicus, UniProt Q01717); settings: cited from earlier work
T2 construct: host or cells: rat pituitary tissue
T2 sequence (Q01717 1-412): T1 sequence (Q01717 1-412)

TRHR1 [8] = settings: Scalabrino 2007, Hogan 2008; cited from earlier work
[9] = biological target: T3, TRH receptors in human pituitary tissue (Homo sapiens, UniProt P34981); assay: Competition binding with [3H][3-Me-His2]TRH, human pituitary tissue membranes
T3 construct: from tissue; host or cells: human pituitary membranes from individual donors
T3 sequence (P34981 1-398): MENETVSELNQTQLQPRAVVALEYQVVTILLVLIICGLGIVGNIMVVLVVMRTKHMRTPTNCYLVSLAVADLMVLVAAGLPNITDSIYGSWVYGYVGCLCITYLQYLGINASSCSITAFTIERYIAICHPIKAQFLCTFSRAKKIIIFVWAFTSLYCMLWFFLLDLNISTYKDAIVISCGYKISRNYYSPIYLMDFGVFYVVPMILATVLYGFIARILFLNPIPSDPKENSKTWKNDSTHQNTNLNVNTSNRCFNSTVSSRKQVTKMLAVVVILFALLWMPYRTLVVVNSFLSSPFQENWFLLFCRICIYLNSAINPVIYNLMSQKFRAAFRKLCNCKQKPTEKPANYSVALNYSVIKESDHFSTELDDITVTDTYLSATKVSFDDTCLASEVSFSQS
Description: To investigate the binding of Glp-Asn-Pro-D-Tyr-D-TrpNH2 in human tissue, radioligand binding studies were carried out employing [^3H][3-Me-His^2]TRH to label TRH receptors in cortical, hippocampal, spinal cord and pituitary tissue membranes from human tissue.
(§1) Competition binding assays using human tissue prepared from individual donors with no history of neurological disease were carried out essentially as previously described (Kelly et al., 2002; Scalabrino et al., 2007; Hogan et al., 2008) by incubating membrane suspension, [^3H][3-Me-His^2]TRH, and increasing concentrations of peptide for 5 h at 4° C. Non-specific binding (NSB) was determined in the presence of 10 μM TRH. Separation of bound and free ligand was achieved by vacuum filtration through GF/C or GF/B filters, followed by washing with 3×5 ml of ice-cold NaCl or Tris-HCl buffer. The radioactivity retained on the filters was measured by liquid scintillation counting.

[10] = test system: [^3H][3-Me-His^2]TRH-labelled native TRH receptors in rat hippocampal membranes; settings: Scalabrino 2007, Hogan 2008; cited from earlier work
[11] = biological target: T1, TRHR1 (GH4 pituitary cell line, naturally expresses TRHR1); settings: Scalabrino 2007, Hogan 2008; cited from earlier work
TRHR2 = biological target: T4, TRHR2 (Rattus norvegicus, UniProt A6IZR3); settings: Scalabrino 2007, Hogan 2008; cited from earlier work
T4 construct: host or cells: CHO cells expressing TRHR2
T4 sequence (A6IZR3 1-352): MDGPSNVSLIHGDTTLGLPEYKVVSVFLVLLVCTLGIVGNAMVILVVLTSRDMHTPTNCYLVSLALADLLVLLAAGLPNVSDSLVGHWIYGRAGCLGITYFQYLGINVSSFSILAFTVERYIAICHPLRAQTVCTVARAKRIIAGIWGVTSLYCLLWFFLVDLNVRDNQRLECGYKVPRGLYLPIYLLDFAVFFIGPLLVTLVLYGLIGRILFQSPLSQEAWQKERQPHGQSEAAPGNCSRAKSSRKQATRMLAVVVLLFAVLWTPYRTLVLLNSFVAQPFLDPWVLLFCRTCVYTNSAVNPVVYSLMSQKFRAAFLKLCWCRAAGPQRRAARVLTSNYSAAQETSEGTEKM

[12] = test system: TRH receptors in human CNS tissue (cortical, hippocampal, spinal cord); assay: Competition binding with [3H][3-Me-His2]TRH, human CNS tissue membranes; settings: for IC50: 5 h at 4° C.
Description: as §1, with “Hogan et al., 2008) by incubating membrane suspension, [^3H][3-Me-His^2]TRH, and increasing concentrations of peptide for 5 h at 4° C. Non-specific binding (NSB) was determined in the presence of 10 μM TRH.” left out

[13] = human CNS tissue, read-out: IC50, displacement of [^3H][3-Me-His^2]TRH from CNS tissue

Compound | Ki [1] | Ki [2] | IC50 [3] | IC50 (TRHR1 [4]) | other results
Cc1cc(=O)oc2cc(NC(=O)[C@@H](Cc3c[nH]c4ccccc34)NC(=O)[C@@H](Cc3ccc(O)cc3)NC(=O)[C@@H]3CCCN3C(=O)[C@H](CC(N)=O)NC(=O)[C@@H]3CCC(=O)N3)ccc12 [Glp-Asn-Pro-DTyr-DTrp-AMC] ([pGlu]NP[dY][dW]-{AMC}) | 22 nM | 1.7 nM | > 100000 nM |  | 
Cc1cc(=O)oc2cc(NC(=O)[C@H](Cc3c[nH]c4ccccc34)NC(=O)[C@H](Cc3ccc(O)cc3)NC(=O)[C@@H]3CCCN3C(=O)[C@H](CC(N)=O)NC(=O)[C@@H]3CCC(=O)N3)ccc12 [Glp-Asn-Pro-LTyr-LTrp-AMC] ([pGlu]NPYW-{AMC}) | 80 nM | 330 nM | > 100000 nM |  | 
Cc1cc(=O)oc2cc(NC(=O)[C@H](Cc3c[nH]c4ccccc34)NC(=O)[C@H](Cc3c[nH]c4ccccc34)NC(=O)[C@H](Cc3ccc(O)cc3)NC(=O)[C@@H]3CCCN3C(=O)[C@H](CC(N)=O)NC(=O)[C@@H]3CCC(=O)N3)ccc12 [Glp-Asn-Pro-LTyr-LTrp-LTrp-AMC] ([pGlu]NPYWW-{AMC}) | 8.8 nM |  | > 100000 nM |  | 
NC(=O)C[C@H](NC(=O)[C@@H]1CCC(=O)N1)C(=O)N1CCC[C@H]1C(=O)N[C@@H](Cc1ccc(O)cc1)C(=O)N[C@@H](Cc1c[nH]c2ccccc12)C(N)=O [Glp-Asn-Pro-LTyr-LTrp-NH2] ([pGlu]NPYW-NH2) | 120 nM | 110 nM | > 100000 nM | > 100000 nM | 
[^3H][3-Me-His^2]TRH |  |  |  |  | Kd ([5]; single population of high affinity sites, prior studies, read-out: Kd of radioligand binding, rat brain cortical membranes): ~5 nM; Kd [6]: 7 to 10 nM; Kd ([7]; single population of high-affinity sites, prior studies, read-out: Kd of radioligand binding, rat pituitary tissue): 2.2 nM
NC(=O)C[C@H](NC(=O)[C@@H]1CCC(=O)N1)C(=O)N1CCC[C@H]1C(=O)N[C@H](Cc1ccc(O)cc1)C(=O)N[C@H](Cc1c[nH]c2ccccc12)C(N)=O [Glp-Asn-Pro-D-Tyr-D-TrpNH2] ([pGlu]NP[dY][dW]-NH2) | 11 nM | 6.8 nM | > 100000 nM | > 100000 nM | affinity for [^3H][3-Me-His^2]TRH-labelled native TRH receptors, rat cortical tissue homogenate (in words) ([5]; Scalabrino 2007, Hogan 2008): high affinity; displacement of [^3H][3-Me-His^2]TRH binding from CHO-TRHR1 membranes (in words) (TRHR1 [8]): does not displace; binding to TRH receptors in human pituitary (in words) ([9]; human pituitary): not pituitary; displacement of [^3H][3-Me-His^2]TRH binding from human pituitary (in words) ([9]; human pituitary membranes): does not displace; also recorded: did not displace; affinity for [^3H][3-Me-His^2]TRH-labelled native TRH receptors, rat hippocampal tissue homogenate (in words) [10]: high affinity; displacement of [^3H][3-Me-His^2]TRH binding from GH4 membranes (in words) [11]: does not displace; displacement of [^3H][3-Me-His^2]TRH binding from CHO-TRHR2 membranes (in words) (TRHR2): does not displace; displacement of [^3H][3-Me-His^2]TRH binding from native rat pituitary tissue (in words) ([7]; Scalabrino 2007, Hogan 2008): does not displace; displacement of [^3H][3-Me-His^2]TRH binding from human CNS tissue (in words) ([12]; human CNS tissue): found to displace; IC50 [12, 13]: ~100 nM; binding to TRH receptors in human brain and spinal cord (in words) ([12]; human brain and spinal cord): binds; IC50 ([12]; human hippocampal membranes, read-out: IC50, displacement of [^3H][3-Me-His^2]TRH from hippocampal membranes): ~10 nM
NC(=O)[C@@H]1CCCN1C(=O)[C@H](Cc1cnc[nH]1)NC(=O)[C@@H]1CCC(=O)N1 [TRH, Thyrotropin releasing hormone, reference compound] |  |  |  |  | Ki ([5]; prior studies, read-out: Ki, competition for [^3H][3-Me-His^2]TRH sites on rat brain cortical membranes): ~25 nM; IC50 ([9]; human pituitary, 5 h at 4° C., read-out: IC50, displacement of [^3H][3-Me-His^2]TRH from pituitary tissue): ~10 nM; IC50 [12, 13]: ~10 nM
Cc1cc(=O)oc2cc(NC(=O)[C@@H](Cc3c[nH]c4ccccc34)NC(=O)[C@@H](Cc3c[nH]c4ccccc34)NC(=O)[C@@H](Cc3ccc(O)cc3)NC(=O)[C@@H]3CCCN3C(=O)[C@H](CC(N)=O)NC(=O)[C@@H]3CCC(=O)N3)ccc12 [Glp-Asn-Pro-DTyr-DTrp-DTrp-AMC] ([pGlu]NP[dY][dW][dW]-{AMC}) | 30 nM | 25 nM | > 100000 nM |  | 
Cn1cnc(C[C@H](NC(=O)[C@@H]2CCC(=O)N2)C(=O)N2CCC[C@H]2C(N)=O)c1 [[3-Me-His2]TRH, reference compound] | 34 nM | 74 nM | 11.2 nM | 17.5 nM | 
